Assay results: ChEMBL document CHEMBL5352384, “Identification of new FK866 analogues with potent anticancer activity against pancreatic cancer” (Eur J Med Chem, 2022)
The source made the active and inactive calls. The calls are words filed in the database; no cut-off is given here.

Key:
Jurkat [1] = assay: Antiproliferative activity against human Jurkat cells assessed as inhibition of cell growth measured after 72 hrs by XTT assay; type: functional, cell-based
MIA PaCa-2 = assay: Antiproliferative activity against human MIA PaCa-2 cells assessed as inhibition of cell growth measured after 72 hrs by XTT assay; type: functional, cell-based; settings: MIA PaCa-2, 72 h
PANC-1 [2] = assay: Antiproliferative activity against human PANC-1 cells assessed as inhibition of cell growth measured after 72 hrs by XTT assay; type: functional, cell-based; settings: PANC-1, 72 h
BXPC-3 = assay: Antiproliferative activity against human BXPC-3 cells assessed as inhibition of cell growth measured after 72 hrs by XTT assay; type: functional, cell-based; settings: BXPC-3, 72 h
Jurkat [3] = assay: Induction of apoptosis in human Jurkat cells assessed as cell death at upto 1000 nM measured after 96 hrs by annexin V and 7AAD double staining based flow cytometry analysis; type: functional
Jurkat [4] = assay: Antiproliferative activity against human Jurkat cells assessed as reduction in cell viability at 10 nM incubated for 96 hrs in presence of NAD+ by annexin V and 7AAD double staining based flow cytometry analysis; type: functional
Jurkat [5] = assay: Induction of apoptosis in human Jurkat cells assessed as caspase-3 cleavage at 10 nM measured after 96 hrs by flow cytometry analysis; type: functional, cell-based
Jurkat [6] = assay: Antiproliferative activity against human Jurkat cells assessed as reduction in cell viability at 10 nM incubated for 96 hrs in presence of NMN by annexin V and 7AAD double staining based flow cytometry analysis; type: functional
PANC-1 [7] = assay: Cytotoxicity against human PANC-1 cells assessed as reduction in cell viability measured after 72 hrs by resazurin staining based fluorescent plate reader; type: functional; settings: PANC-1, 72 h

IC50 (Jurkat [1]) [nM] | IC50 (MIA PaCa-2) [nM] | SMILES | further results
20 |  | O=Cc1ccc(C(=O)N2CCC(CCCCNC(=O)/C=C/c3cccnc3)CC2)cc1 | 
100 |  | O=C(/C=C/c1ccc[n+]([O-])c1)NCCCCC1CCN(C(=O)c2ccccc2)CC1 | 
28 |  | O=C(/C=C/c1cccnc1)NCCCCC1CCN(C(=O)CCc2ccccc2)CC1 | 
> 200 |  | O=C(/C=C/c1cccnc1)NCCC1CCN(C(=O)c2ccccc2)CC1 | 
18 |  | O=C(/C=C/c1cccnc1)NCCCCC1CCN(C(=O)Cc2ccccc2)CC1 | 
68 |  | O=C(/C=C/c1cccnc1)NCCCCC1CCN(C(=O)c2ccc([N+](=O)[O-])cc2)CC1 | 
850 |  | CC(=O)c1cccc(C(=O)N2CCC(CCCCNC(=O)/C=C/c3cccnc3)CC2)c1 | 
800 |  | CC(=O)c1ccc(C(=O)N2CCC(CCCCNC(=O)/C=C/c3cccnc3)CC2)cc1 | 
100 |  | COc1ccc(C(=O)N2CCC(CCCCNC(=O)/C=C/c3cccnc3)CC2)cc1 | 
2.3 | 1 | COc1ccccc1C(=O)N1CCC(CCCCNC(=O)/C=C/c2cccnc2)CC1 | Activity (Jurkat [3]): Active; Activity (Jurkat [4]): inactive; Activity (Jurkat [5]): Active; IC50 (PANC-1 [2]): 0.08 nM; Activity (Jurkat [6]): inactive; IC50 (BXPC-3): 0.5 nM
33 | 69 | O=C(/C=C/c1ccnnc1)NCCCCC1CCN(C(=O)c2ccccc2)CC1 | IC50 (BXPC-3): 19.4 nM
5.8 | 3.9 | O=C(/C=C/c1cccnc1)NCCCCC1CCN(C(=O)c2ccccc2O)CC1 | IC50 (PANC-1 [2]): 1.3 nM; IC50 (BXPC-3): 8.1 nM
3.6 | 4.5 | COc1cccc(C(=O)N2CCC(CCCCNC(=O)/C=C/c3cccnc3)CC2)c1OC | Activity (Jurkat [3]): Active; Activity (Jurkat [4]): inactive; Activity (Jurkat [5]): Active; IC50 (PANC-1 [2]): 3.2 nM; Activity (Jurkat [6]): inactive; IC50 (BXPC-3): 25 nM
0.6 | 2.2 | O=C(/C=C/c1cccnc1)NCCCCC1CCN(C(=O)c2ccccc2)CC1 [DAPORINAD] | Activity (Jurkat [3]): Active; Activity (Jurkat [5]): Active; IC50 (PANC-1 [2]): 0.6 nM; IC50 (BXPC-3): 0.3 nM
36 |  | O=C(/C=C/c1cccnc1)NCCCCC1CCN(C(=O)/C=C/c2ccccc2)CC1 | 
40 |  | O=Cc1cccc(C(=O)N2CCC(CCCCNC(=O)/C=C/c3cccnc3)CC2)c1 | 
9 |  | COc1cccc(C(=O)N2CCC(CCCCNC(=O)/C=C/c3cccnc3)CC2)c1 | 
16 |  | O=C(/C=C/c1cccnc1)NCCCCC1CCN(S(=O)(=O)c2ccccc2)CC1 | 
400 |  | Cc1ccc(S(=O)(=O)N2CCC(CCCCNC(=O)/C=C/c3cccnc3)CC2)cc1 | 
34 |  | O=C(/C=C/c1cccnc1)NCCCCC1CCN(C(=O)c2ccc(CO)cc2)CC1 | 
10 |  | O=C(/C=C/c1cccnc1)NCCCCC1CCN(C(=O)c2ccc(F)cc2)CC1 | 

The remaining lines, values behind:

SMILES | IC50 (Jurkat [1]) [nM] | IC50 (MIA PaCa-2) [nM] | further results
COc1cccc(OC)c1C(=O)N1CCC(CCCCNC(=O)/C=C/c2cnccn2)CC1 | > 1000 |  | 
COc1cccc(OC)c1C(=O)N1CCC(CCCCNC(=O)/C=C/c2cccnc2F)CC1 | 6.5 | 24 | IC50 (PANC-1 [2]): 5.7 nM
O=C(/C=C/c1cccnc1)NCCCCC1CCN(C(=O)c2ccc(C(F)(F)F)cc2)CC1 | > 1000 |  | 
COc1ccc(OC)c(C(=O)N2CCC(CCCCNC(=O)/C=C/c3cccnc3)CC2)c1 | 4.3 | 3.9 | IC50 (PANC-1 [2]): 2.8 nM; IC50 (BXPC-3): 13 nM
O=C(/C=C/c1cccnc1)NCCCCC1CCN(C(=O)C2CCOCC2)CC1 | 30 |  | 
COc1cccc(OC)c1C(=O)N1CCC(CCCCNC(=O)/C=C/c2cccnc2)CC1 | 0.8 | 0.5 | Activity (Jurkat [3]): Active; Activity (Jurkat [4]): inactive; Activity (Jurkat [5]): Active; IC50 (PANC-1 [2]): 0.6 nM; Activity (Jurkat [6]): inactive; IC50 (BXPC-3): 0.004 nM
O=C(/C=C/c1cccnc1)NCCCCC1CCN(C(=O)C2CCCOC2)CC1 (centres undefined) | 35 |  | 
O=C(/C=C/c1cccnc1)NCC(O)CCC1CCN(C(=O)c2ccccc2)CC1 (centres undefined) | 3500 |  | 
O=C(/C=C/c1cccnc1)NCCCCC1CCN(C(=O)C2CCC(=O)N2)CC1 (centres undefined) | 350 |  | 
COc1cc(C(=O)N2CCC(CCCCNC(=O)/C=C/c3cccnc3)CC2)cc(OC)c1OC | 10 |  | 
COc1ccc(C(=O)N2CCC(CCCCNC(=O)/C=C/c3cccnc3)CC2)cc1OC | 32 |  | 
O=C(/C=C/c1cccnc1)NCCCCC1CCN(C(=O)C2CCCCC2)CC1 | 32 |  | 
O=C(/C=C/c1cccnc1Cl)NCCCCC1CCN(C(=O)c2ccccc2)CC1 | 2500 |  | 
O=C(/C=C/c1cccnc1)NCCCCC1CCN(C(=O)C2CCCO2)CC1 (centres undefined) | 30 |  | 
O=C(/C=C/c1cccnc1)NCC1OC1CC1CCN(C(=O)c2ccccc2)CC1 (centres undefined) | 2500 |  | 
O=C(/C=C/c1ccc(Cl)nc1Cl)NCCCCC1CCN(C(=O)c2ccccc2)CC1 | 2500 |  | 
COc1cccc(OC)c1C(=O)N1CCC(OCCCNC(=O)/C=C/c2cccnc2)CC1 | 850 |  | 

SMILES | IC50 (Jurkat [1]) [nM] | IC50 (MIA PaCa-2) [nM] | further results
COc1cc(C=O)cc(OC)c1C(=O)N1CCC(CCCCNC(=O)/C=C/c2cccnc2F)CC1 | 0.8 | 3 | IC50 (PANC-1 [2]): 16 nM; IC50 (BXPC-3): 53 nM
COc1cccc(OC)c1C(=O)N1CCC(CCCCNC(=O)/C=C/c2ccc(F)nc2F)CC1 | 73 | 75 | IC50 (PANC-1 [2]): 2 nM
O=C(/C=C/c1cccnc1F)NCCCCC1CCN(C(=O)c2ccccc2)CC1 | 2.3 | 4 | 
O=C(/C=C/c1cccnc1)NCCCOC1CCN(C(=O)c2ccccc2)CC1 | 800 |  | 
O=C(/C=C/c1cccnc1)NCCCCC1CCN(C(=O)C2CCCCO2)CC1 (centres undefined) | 50 |  | 
COc1cc(OC)c(C(=O)N2CCC(CCCCNC(=O)/C=C/c3cccnc3)CC2)c(OC)c1 | 1 | 0.16 | Activity (Jurkat [3]): Active; Activity (Jurkat [4]): inactive; Activity (Jurkat [5]): Active; IC50 (PANC-1 [2]): 0.9 nM; Activity (Jurkat [6]): inactive; IC50 (BXPC-3): 1.7 nM
O=C(/C=C/c1cccnc1)NC/C=C/C1CCN(C(=O)c2ccccc2)CC1 | 100 |  | 
COc1cccc(OC)c1C(=O)N1CCC(C/C=C/CNC(=O)/C=C/c2cccnc2)CC1 | 5 | 2.7 | IC50 (PANC-1 [2]): 2.3 nM; IC50 (BXPC-3): 0.4 nM
O=C(NCCCc1cn[nH]c1)c1ccc(-c2ccncc2)c(C#Cc2ccc(F)cc2)c1 |  |  | EC50 (PANC-1 [7]): 3.5 nM
O=C(/C=C/c1cnccn1)NCCCCC1CCN(C(=O)c2ccccc2)CC1 | > 1000 |  | 
COc1cc(OC)c(C(=O)N2CCC(C/C=C/CNC(=O)/C=C/c3cccnc3)CC2)c(OC)c1 | 3 | 0.8 | IC50 (PANC-1 [2]): 0.4 nM; IC50 (BXPC-3): 2.8 nM
COc1cc(C=O)cc(OC)c1C(=O)N1CCC(CCCCNC(=O)/C=C/c2cccnc2)CC1 | 0.4 | 0.25 | IC50 (PANC-1 [2]): 1.9 nM; IC50 (BXPC-3): 13 nM
COc1ccc(C(=O)N2CCC(CCCCNC(=O)/C=C/c3cccnc3)CC2)c(OC)c1 | 8.4 | 4 | IC50 (PANC-1 [2]): 0.2 nM; IC50 (BXPC-3): 24 nM
COc1ccc(C(=O)N2CCC(CCCCNC(=O)/C=C/c3cccnc3)CC2)c(OC)c1OC | 28 |  | 
O=C(/C=C/c1cccnc1)NC/C=C/CC1CCN(C(=O)c2ccccc2)CC1 | 10 | 13 | IC50 (PANC-1 [2]): 8.6 nM; IC50 (BXPC-3): 34 nM
COc1cccc(OC)c1C(=O)N1CCC(CCCCNC(=O)/C=C/c2ccnnc2)CC1 | 35 | 25 | IC50 (BXPC-3): 15.6 nM
O=C(/C=C/c1ccc(F)nc1F)NCCCCC1CCN(C(=O)c2ccccc2)CC1 | 6.7 | 13.5 | IC50 (PANC-1 [2]): 14 nM; IC50 (BXPC-3): 31 nM
